Marks after values point to notes of the source that are not given here.
What was measured:
HAC15 cells [1] = assay: Cortisol production by HAC15 cells (immunoassay); type: cell-based, Human; details: HAC15, 10 nM ACTH
Experimental: Human adrenocortical carcinoma HAC15 and mouse corticotroph AtT20 cells were used, purchased as a kind gift by Dr. W. Rainey, and obtained from Dr. J. Tooze (European Organization for Molecular Biology), respectively. Both cell lines were cultured in 75 cm^2 flasks at 37° C. in a humidified incubator (Greiner Bio-One, Alphen a/d Rijn, the Netherlands) at 5% CO2. Dulbecco's Modified Eagle Medium F12 containing 5% fetal calf serum was used for HAC15, whereas AtT20 cells were cultured in Dulbecco's minimal essential medium (DMEM) supplemented with 10% fetal calf serum. Both mediums were supplemented with L-glutamine (2 mmol/L) and penicillin (10^5 U/L). Short tandem repeat (str) profiling using a Powerplex Kit (Promega, Leiden, the Netherlands) of HAC15 and AtT20 gave results consistent with the ATCC database, confirming the identity of both cell lines. Medium and supplements were obtained from Invitrogen, Breda, the Netherlands. Once a week, cells were harvested with trypsin (0.05%)-EDTA (0.53 mM) and resuspended in culture medium. Levoketoconazole (COR-003) and racemic ketoconazole (both from Cortendo AB) were dissolved in absolute ethanol (EtOH), according to manufacturer's instructions, and stored at −20° C. at a stock concentration of […]. At the start of each experiment, both drugs were freshly prepared and diluted in EtOH in the correct concentrations. Synacten (synthetic ACTH, Novartis Pharma A.G.) stock concentration was stored at 4° C. and dissolved in culture medium at the day of use. The final concentrations of ACTH were chosen based on a dose-response curve in HAC15 cells and previously reported studies in the literature. For HAC15, 200,000 and 100,000 cells were plated in 0.5 ml medium in 24 well plates for experiments of 1 and 3 days, respectively. […]
Cortisol concentrations were measured in the supernatant using a chemiluminescence immunoassay system (Immulite 2000XPi; Siemens DPC Inc., Los Angeles, Calif., USA). In addition, we carried out multi-steroid analysis by liquid chromatography/mass spectrometry (LC/MS-MS) to accurately quantify androstenedione, corticosterone, cortisol, 11-deoxycortisol, DHEA, DHEAS, progesterone, 17-hydroxyprogesterone, and testosterone. […] Steroids were quantified with respect to a calibration series, with internal standards. Steroids were quantified on a Xevo TQS LC-MS/MS (Waters Chromatography).
Statistical analysis was performed using Graphpad Prism 6.0 (Graphpad Software, San Diego, CA). […] Effects of both compounds on the steroid profile were measured as absolute change compared to control and compared using the Student's t-test. When assessing differences between effects of both compounds, the percentage change was evaluated and compared in order to correct for differences in the vehicle treated control cells. […]

[2] = test system: EAS associated adrenal hyperplasia cultures; assay: Cortisol production in primary EAS associated adrenal hyperplasia cultures; type: cell-based, human; details: EAS associated hyperplasia no. 1, ACTH (85 μM), mean percentage increase of cortisol production compared to control
Experimental: (§1) To obtain primary cultures, adrenal specimens (adrenocortical adenomas, adrenal hyperplasias and adrenocortical carcinomas) were collected after adrenalectomy at the department of Surgery, Erasmus University Medical Center, Rotterdam, the Netherlands, between April 2016 and May 2018. The study was conducted under guidelines that have been approved by the Medical Ethics Committee of the Erasmus Medical Center and informed consent was obtained from all patients. Immediately after surgery, specimens were minced into small pieces of 2-3 mm^3, washed in culture medium and centrifuged for 5 minutes at 600 g. The tissue was stored overnight in culture medium at 4° C., where after the tissue was centrifuged again and the supernatant was removed. Fragments were dissociated using 10-25 ml collagenase type 1 (2 mg/ml: Sigma-Aldrich), followed by incubation at 37° C. for up to two hours. Ficoll (GE healthcare) density gradient separation was used once or twice as required in order to separate contaminating red blood cells from the tumor cells. Cell viability and cell amount were counted by trypan blue exclusion. Dissociated cells were plated at a density of 10^5 cells per well. ACTH-secreting corticotroph pituitary adenoma tissue from patients with Cushing's disease (n=2) was available after transsphenoidal surgery. Single-cell suspensions of the pituitary adenoma tissues were prepared as previously described in detail.
(§2) Owing to a limited number of cells obtained from the specimens, not all experiments were carried out in every primary culture.
(§3) Cortisol concentrations were measured in the supernatant using a chemiluminescence immunoassay system (Immulite 2000XPi; Siemens DPC Inc., Los Angeles, Calif., USA). In addition, we carried out multi-steroid analysis by liquid chromatography/mass spectrometry (LC/MS-MS) to accurately quantify androstenedione, corticosterone, cortisol, 11-deoxycortisol, DHEA, DHEAS, progesterone, 17-hydroxyprogesterone, and testosterone. Concentrations that were tested on the LC/MS-MS were closest to 50% inhibition or maximal inhibition of cortisol as determined by the immunoassay. Steroids were quantified with respect to a calibration series, with internal standards. Steroids were quantified on a Xevo TQS LC-MS/MS (Waters Chromatography).
(§4) Statistical analysis was performed using Graphpad Prism 6.0 (Graphpad Software, San Diego, CA). Non-linear regression curve fitting program was used to calculate the half maximal inhibitory concentrations (IC50) on cortisol production. Effects of both compounds on the steroid profile were measured as absolute change compared to control and compared using the Student's t-test. When assessing differences between effects of both compounds, the percentage change was evaluated and compared in order to correct for differences in the vehicle treated control cells. Values of P<0.05 were considered statistically significant and data are presented as mean SEM.

[3] = test system: primary human adrenocortical carcinoma cultures; assay: Cortisol production in primary adrenocortical carcinoma cultures; type: cell-based; details: ACC no. 3, ACTH (85 μM), mean percentage increase of cortisol production compared to control
Experimental: as §1, §2, §3, §4

HAC15 cells [4] = assay: Steroid profile by LC/MS-MS in HAC15 cells; type: cell-based, Human; details: HAC15
Experimental: Human adrenocortical carcinoma HAC15 and mouse corticotroph AtT20 cells were used, purchased as a kind gift by Dr. W. Rainey, and obtained from Dr. J. Tooze (European Organization for Molecular Biology), respectively. Both cell lines were cultured in 75 cm^2 flasks at 37° C. in a humidified incubator (Greiner Bio-One, Alphen a/d Rijn, the Netherlands) at 5% CO2. Dulbecco's Modified Eagle Medium F12 containing 5% fetal calf serum was used for HAC15, whereas AtT20 cells were cultured in Dulbecco's minimal essential medium (DMEM) supplemented with 10% fetal calf serum. Both mediums were supplemented with L-glutamine (2 mmol/L) and penicillin (10^5 U/L). Short tandem repeat (str) profiling using a Powerplex Kit (Promega, Leiden, the Netherlands) of HAC15 and AtT20 gave results consistent with the ATCC database, confirming the identity of both cell lines. Medium and supplements were obtained from Invitrogen, Breda, the Netherlands. Once a week, cells were harvested with trypsin (0.05%)-EDTA (0.53 mM) and resuspended in culture medium. Levoketoconazole (COR-003) and racemic ketoconazole (both from Cortendo AB) were dissolved in absolute ethanol (EtOH), according to manufacturer's instructions, and stored at −20° C. at a stock concentration of […]. At the start of each experiment, both drugs were freshly prepared and diluted in EtOH in the correct concentrations. Synacten (synthetic ACTH, Novartis Pharma A.G.) stock concentration was stored at 4° C. and dissolved in culture medium at the day of use. The final concentrations of ACTH were chosen based on a dose-response curve in HAC15 cells and previously reported studies in the literature. For HAC15, 200,000 and 100,000 cells were plated in 0.5 ml medium in 24 well plates for experiments of 1 and 3 days, respectively. For AtT20, cell amounts were 100,000 and 30,000. One day after seeding the HAC15 cells, the medium was refreshed and cells were treated 1 or 3 days in quadruplicate with levoketoconazole or racemic ketoconazole (0.05-5 μM), with or without 10 nM ACTH. To study effects of both compounds on pituitary AtT20 cells, concentrations of 0.1 to 10 μM of both drugs were used. Controls were vehicle treated. […] Media were collected after 1 or 3 days of incubation and stored at −20° C. until analysis. All cell culture experiments were carried out at least twice.
as §3, §4

[5] = test system: EAS associated adrenal hyperplasia no. 1 primary culture; assay: Steroid profile by LC/MS-MS in EAS associated adrenal hyperplasia no. 1; type: cell-based, human; details: EAS associated adrenal hyperplasia no. 1
Experimental: as §1
Primary culture conditions for primary cultures were similar as described in the section ‘cell culture and compounds’, but with small adjustments: ACTH was used at a concentration of 85 pM (250 pg/mL), treatment was started 3-4 days after plating of the cells and cells were incubated for 3 days, and; for pituitary primary cultures, levoketoconazole and racemic ketoconazole were only tested at a concentration of 1 μM. Owing to a limited number of cells obtained from the specimens, not all experiments were carried out in every primary culture.
as §3, §4

ACTH: Synacten (synthetic ACTH, Novartis Pharma A.G.), used to stimulate cortisol production
mean increase in cortisol by ACTH stimulation (HAC15 cells [1]; 1 day of incubation): 34% | mean increase in cortisol by ACTH stimulation (HAC15 cells [1]; 3 days of incubation): 61% | ACTH stimulated cortisol (%) [2]: +228% | ACTH stimulated cortisol (%) [3]: +67% * | increase of corticosterone under ACTH (HAC15 cells [4]): 359% | increase of progesterone under ACTH (HAC15 cells [4]): 7% | change of progesterone by ACTH stimulation [5]: −11% | change of testosterone by ACTH stimulation [5]: did not change | mean increase of corticosterone, 17-OHP, 11-DOC, cortisol and androstenedione by ACTH stimulation [5]: +111%
